Patent publication US20230398087A1, “APPLICATION OF BZP IN TREATMENT OF ISCHEMIC CARDIOVASCULAR AND CEREBRAL VASCULAR DISEASES” (priority 2020, published 2023)
Where “and” joins values, the source holds several entries; their conditions need not be identical. Identical values can stand only once. Entries after “also recorded” stand apart in the source; their conditions may differ.

Legend:
[1] = tested on: Bax/Bcl-2-cytochrome C-Caspase-3 mitochondrial apoptosis pathway; PI3K-p-Akt survival signaling pathway; test: Neuronal apoptosis after focal cerebral ischemia-reperfusion injury; set-up: species or system rats; details: rat, in vivo
Excerpt: 2.3 The Protective Effect of BZP on Neuronal Apoptosis after Focal Cerebral Ischemia-Reperfusion Injury in Rats: […]

[2] = tested on: MCAO model rats; test: Focal cerebral ischemia-reperfusion injury in rats (MCAO model); type: in vivo
Experimental: (§1) BZP has a protective effect on cerebral ischemia-reperfusion injury and is effective when administered within 4 hours after ischemia, especially within 2 hours after ischemia.
In the follow-up test, the drug was administered at 2 h of ischemia.
BZP can improve motor dysfunction, reduce the volume of cerebral infarction, and reduce cerebral edema. The optimal treatment time window is within 4 hours after ischemia, especially within 2 hours after ischemia.

[3] = tested on: acute ischemic stroke patients; test: BZP1703 Phase II clinical trial in acute ischemic stroke; type: in vivo, human; details: preliminary results
Excerpt: The BZP1703 clinical trial is a multi-center, randomized, double-blind, placebo-controlled Phase II clinical trial. The purpose of the trial is to evaluate the safety and feasibility of different doses of BZP for injection compared with placebo in the treatment of acute ischemic stroke, and to preliminarily explore its effectiveness, so as to provide a basis for the design of Phase III clinical trial.
The trial plans to enroll 375 acute ischemic stroke patients aged 45 to 75 in China. […]
The primary safety endpoint of the BZP1703 trial is SAE, and the primary efficacy endpoint is the difference between the NIHSS score on day 14 and the baseline NIHSS score. Secondary safety endpoints include all-cause death, fatal bleeding and symptomatic intracranial hemorrhage, hemorrhagic transformation of cerebral infarction detected by head magnetic resonance imaging (MRI) on day 14, various adverse events; other bleeding events, AE, AEs of special interest (seizures, bradycardia, atrioventricular block, coagulation abnormalities, proteinuria, leukopenia), number and incidence of patients with new vascular events (ischemic stroke/hemorrhagic stroke/myocardial infarction/vascular death), vital signs, physical examination, laboratory tests (blood routine, blood biochemistry, urine routine, stool routine, coagulation function, etc.), 12-lead electrocardiogram (ECG) and other abnormalities. […]

[4] = in vivo; details: for recovery of toxic reactions in the nervous system and respiratory system: acute toxicity test; for MTD: in vivo, single intravenous injection
Experimental: In the acute toxicity test, a single intravenous injection of BZP was given to rats and dogs, and the MTDs were 200 mg/kg and 300 mg/kg.

[5] = tested on: neurobehavior; test: Safety pharmacology, neurobehavior; type: in vivo, rats
Experimental: These changes all recovered within 4 hours after drug withdrawal. The effective dose (12 mg/kg) of BZP to protect against ischemia-reperfusion injury in rats was lower than the dose (50 mg/kg) that caused neurological effects in rats.

[6] = tested on: acute global cerebral ischemia in rats; test: Acute global cerebral ischemia in rats, volume of cerebral infarction (nuclear magnetic resonance); type: in vivo
Excerpt: 2.7 The Protective Effect of BZP on Acute Global Cerebral Ischemia in Rats: […]

[7] = BZP1702 Phase I multiple doses pharmacokinetics in healthy subjects; details: for half-life: both, human, plasma
Experimental: Analysis population: same as BZP1601 trial. The study contained 4 BZP groups (50 mg, 100 mg, 200 mg respectively) and a placebo group. Each group enrolled 10, 10, 10 and 6 subjects, respectively, a total of 36 subjects. 1 subject in the 50 mg group took a drug two days before the administration, and the paracetamol, caffeine, artificial cow-bezoar and chlorphenamine maleate may affect the metabolism of the drug, and the subject dropped out of the group after collecting a 24-hour blood sample on the second day of administration, so the pharmacokinetic parameters could not be fully calculated, and thus this subject was not included in the pharmacokinetic analysis data set, and the other 29 subjects who were given BZP were all included in the pharmacokinetic analysis data set.
The blood samples were collected at 0 minutes, 20 minutes, 40 minutes, minutes (end of infusion), 1.25 hours, 1.5 hours, 2 hours, 2.5 hours, 3 hours, 4 hours, 6 hours, 8 hours, 12 hours, 16 hours, 24 hours, 36 hours, and 48 hours after administration in BZP1601 trial, while in the BZP1702 trial, on the first day of administration, the blood samples were collected only by 24 hours after administration.

[8] = tested on: global cerebral ischemia-reperfusion model in rats; test: Global cerebral ischemia-reperfusion injury in rats; type: in vivo
Experimental: as §1
2.5 The Protective Effect of BZP on Global Cerebral Ischemia-Reperfusion Injury in Rats:
BZP has a protective effect on acute global cerebral ischemia in rats, and its mechanism is to inhibit the inflammatory response and apoptosis of cells.

[9] = tested on: cardiovascular system; test: Safety pharmacology, cardiovascular system; type: in vivo, dogs
Experimental: These changes all recovered within 0.5 hours after administration. The dose range of […] BZP has no effect on the II-lead ECG.

[10] = 12 and 24 mg/kg of BZP (P<0.01)
[11] = BZP 3, 12 and 24 mg/kg, compared with the model group
[12] = compared with the model group (P<0.05)

CCCCC(O)c1ccc(Br)cc1C(=O)[O-].[Na+] (stereo not drawn) [BZP, sodium 5-bromo-2-(α-hydroxypentyl)benzoate]
Bax/Bcl-2-cytochrome C-Caspase-3 mitochondrial apoptosis pathway [1]: inhibiting | PI3K-p-Akt survival signaling pathway [1]: up-regulating | loss of nerve cells and apoptosis rate [1]: reduce the loss of nerve cells and reduce the apoptosis rate | volume of cortical infarction ([2]; 0.75 mg/kg (P<0.01)): significantly reduce the volume of cortex | effect on volume of cerebral infarction compared with Br-NBP group ([2]; 3 mg/kg of BZP (P<0.01)): better than that of Br-NBP group | muscle strength and balance beam behavior ([2]; 12 mg/kg): significantly restore | proportion of necrotic neurons and apoptosis rate ([2]; 12 mg/kg): reduce the proportion of necrotic neurons and apoptosis rate | effect of administration at 0.5 h and 2 h compared with 4 h after ischemia ([2]; 12 mg/kg (P<0.01)): better than that of 4 h | volume of cerebral infarction, treatment time window ([2]; 12 mg/kg at 0.5 h, 2 h or 4 h after ischemia, compared with the model group): significantly reduce | improved effects compared with NBPK group ([2]; 12 mg/kg, muscle strength, balance beam, necrotic neurons, apoptosis rate): significantly better than those of NBPK group | volumes of cerebral infarction ([2]; 0.75, 3, 12 and 24 mg/kg, compared with the model group (P<0.01)): significantly reduced | neurobehavioral scores ([2]; 3, 12 and 24 mg/kg, at 2.5 h and 6 h, compared with the model group (P<0.05, P<0.01)): significantly lower | volumes of brain edema ([2]; 3, 12 and 24 mg/kg, compared with the model group (P<0.01)): significantly reduced | volumes of striatal and cortical infarction ([2]; 3 and 12 mg/kg (P<0.01)): significantly reduced the volumes of striatal and cortical infarction | effect on volume of cerebral infarction compared with NBP-K and Br-NBP groups [2, 10]: better than those of NBP-K and Br-NBP groups | effect on brain edema compared with NBP-K group and Br-NBP group ([2]; 24 and 12 mg/kg of BZP (P<0.01)): better than those of NBP-K group and Br-NBP group | brain swelling [2, 11]: significantly reduce | volume of cerebral infarction [2, 11]: significantly reduce | neurobehavior of MCAO model rats ([2]; BZP 3, 12 and 24 mg/kg, dose-dependent): improve the neurobehavior | treatment time window: time of administration after ischemia at which effective ([2]; especially within 2 hours after ischemia): ≤ 4 h | effective dose to protect against ischemia-reperfusion injury in rats ([2]; rat, in vivo): 12 mg/kg | effectiveness, single dose of 200 mg compared with 100 mg ([3]; acute ischemic stroke patients): significantly more effective than a single dose of 100 mg | effectiveness, 200 mg twice daily compared with 100 mg twice daily ([3]; intravenous infusion for 14 days): significantly more effective than the dosage regimen of a single dose of 100 mg twice daily | recovery of toxic reactions in the nervous system and respiratory system ([4]; dogs): recovered within 15 minutes to 4 hours | recovery of toxic reactions in the nervous system and respiratory system ([4]; rats): recovered within 15 minutes to 4 hours | MTD ([4]; dog, dogs): 300 mg/kg | MTD ([4]; rat, rats): 200 mg/kg | time to recovery of neurobehavioral changes after drug withdrawal ([5]; 50 and 100 mg/kg): ≤ 4 h | dose that caused neurological effects in rats ([5]; single intravenous injection): 50 mg/kg | body temperature ([5]; single intravenous injection 50 mg/kg and 100 mg/kg): decrease in body temperature | neurobehavioral signs at high dose ([5]; single intravenous injection 100 mg/kg): decreased activity, erect hair, decreased frequency of defecation and urination and loss of pupillary stimulation reflex | reduction of volume of cerebral infarction compared with Br-NBP group and NBP-K group [6, 10]: better than those in Br-NBP group and NBP-K group | volume of cerebral infarction ([6]; BZP 0.75, 3, 12 and 24 mg/kg, Br-NBP 10.5 mg/kg, NBP-K 9.6 mg/kg, vs model group): significantly reduce | accumulation after multiple intravenous infusions ([7]; 7 days): no obvious drug accumulation; also recorded: no significant drug accumulation; also recorded: There was no significant | metabolites other than BNBP ([7]; BZP1702): No significant metabolites other than BNBP were found | accumulation ratio ([7]; after 7 days of continuous administration): 1.10-1.18 | half-life ([7]; intravenous): 5.34 to 5.57 h | half-life ([7]; iv): 11.1 to 13.3 h | difference in AUC0-t and Cmax between subjects of different genders ([7]; multiple doses): not significantly different and 7 days. There was no | mean ratio range between genders, AUC0-t ([7]; multiple doses): 0.797-1.01 | mean ratio range between genders, Cmax ([7]; multiple doses): 0.799-1.01 | day on which blood drug level reached steady state ([7]; multiple intravenous infusions of BZP, 50-200 mg): steady state on the 5th day; also recorded: steady state on the fifth | relationship of AUC0-t and Cmax in plasma with the dose ([7]; multiple intravenous infusions, 50-200 mg, first and steady-state administration): linearly related to the dose; also recorded: linear relationship with the dose | mortality and behavioral score within 24 hours ([8]; 12 mg/kg): reduce the mortality and behavioral score | mortalities within 24 hours ([8]; 3 and 12 mg/kg): lower than those in the model group and the NBP-K group | cell survival pathways (PI3K, P-Akt) ([8]; compared with the model group (P<0.01)): significantly increased | behavioral scores [8, 12]: significantly lower | expression of inflammatory circuit factors, apoptosis pathway factors, neuron necrosis rate and apoptosis rate in hippocampal CA1 region [8, 12]: significantly decreased | time to recovery of blood pressure changes after administration ([9]; 50 mg/kg intravenous): ≤ 0.5 h | systolic blood pressure, diastolic blood pressure and mean arterial pressure ([9]; 0.25 hours after intravenous injection of 50 mg/kg): small transient increase | effect on the II-lead ECG ([9]; dose range of 5-50 mg): no effect
